What was measured:
[1] = system: LB33B1 cells; assay: LB33B1 melanoma cell growth, live cell count 24 hours post treatment; format: cell-based; conditions: increasing concentrations of CKI7, live cells counted 24 hours post treatment
Experimental: FIG. 10d: Blocking β-catenin phosphorylation in a melanoma cell line affects cell growth. LB33B1 cells were treated with increasing concentrations of the S45 phosphorylation inhibitor CKI7 and live cells were counted 24 hours post treatment. • Abbreviations: U.T., untreated or untransfected; Rel. ce. numb. 24 hrs. po. treat., relative cell numbers 24 hours post-treatment.
(§1) The highly metastatic melanoma cell line LB33B1 (B1) is a derivative of the low grade malignant LB33A1 (A1) cells [Ikeda H. et al., (1997) Immunity 6(2): 199-208]. Both cell lines harbor a similar high content of β-catenin, irrespective of proteasome inhibition, yet the B1 β-catenin is phosphorylated (FIG. 10b). […] To assess the contribution of phosphorylated versus non-phosphorylated β-catenin to the MITF-transcriptional activity, reporter-transfected B1 cells were treated with LiCl, which suppresses GSK3 phosphorylation, or cotrasfected with Dvl-ΔPDZ, which cannot cooperate with Frat1, yet suppresses S45 phosphorylation. […] Abrogating β-catenin phosphorylation in melanoma cells may compromise their growth and indeed, treatment of B1 melanoma cells with CKI7, a small-molecule specific CKI inhibitor, slowed their proliferation (FIG. 10d) along with suppressing the phosphorylation of β-catenin (data not shown).

[2] = system: β-catenin; assay: β-catenin phosphorylation in B1 melanoma cells; format: cell-based; conditions: data not shown
Experimental: as §1

[3] = system: β-catenin; format: cell-based, human; conditions: 293 cells
Experimental: (§2) 293T cells were transiently transfected using the calcium phosphate procedure. The following expression vectors were used: Myc- or Flag-tagged β-catenin (0.5 μg) (a human β-catenin clone obtained from R. Grosschedl), Flag- or Myc-tagged axin (2 μg) (mouse cDNA provided by F. Costantini), HA-GSK3β or Flag-GSK3β (3.5 μg) (a rabbit clone obtained from J R Woodgett) [Woodgett, J. R. (1990) EMBO J 9: 2431-2438]. β-catenin mutants include DP, (S33, S37, T40, S45, S47 substituted to alanine) single point mutants (S29F, S33Y, S37A, T41A, S45F) and 45PKA (T41S, T42R, A43R). Additional vectors: Flag-WD, a dominant negative β-TrCP fragment (ΔF-box) [Yaron, A. et al. (1998) Nature 396: 590-594]; Flag-Dvl-1 (a mouse cDNA clone obtained from S-I Yanagawa) [Lee, J. S. et al. (1999) J Biol Chem 274: 21464-21470]; WT and dominant negative Xenopus CKIε (XCKIε-D128N) (provided by T. Shcwarz-Romond) [McKay, R. M. et al. (2001) Dev Biol 235: 378-387]. 24-48 hr after transfection, cells were harvested and processed for the various experiments. MG-132 (Sigma) was used at 20 μM for 5 hr; LiCl (40 mM) was added for 6 hr, and CKI-7 (100 μM) for 16 hr prior to harvesting. β-catenin, axin or GSK-30 in cell lysates were detected using anti-Myc (Ab-1, Oncogenes Research Products, 2 μg/ml), anti-Flag (M2, Sigma, 1 μg/ml) and anti-HA (12CA5 ascites fluid; 1:5000) antibodies, respectively. GFP expression was monitored with anti-GFP antibody (JL-8, Clontech, 1 μg/ml). In some experiments (FIG. 4) GSK-3β was detected using anti-GSK-3β monoclonal antibodies (clone 7, Transduction Laboratories, 0.1 μg/ml). Endogenous and exogenous β-catenin (FIGS. 5d and 6a) were detected with anti-β-catenin antibodies (clone 14, Transduction Laboratories) (0.25 μg/ml).
Western blot and mass spectrometry (MS). Three different commercial anti-β-catenin phospho-peptide antibodies were used: i) Anti-phospho-Thr41/Ser 45 (Cell Signaling Technology), a polyclonal antibody specific for both pT41 and pS45 (otp41,45). ii) Anti-phospho-Ser33/37/Thr41 (Cell Signaling Technology), a polyclonal antibody recognizing pS33 (αp33). These two polyclonal antibodies were used at a 1:1000 dilution, according to the manufacturer's instructions. iii) anti-phospho-Ser 33/37 (BC-22, Sigma), a monoclonal antibody specific for pS37 (used as ascites fluid at a 1:3000 dilution; αp37). Antibody specificities were determined by phosphopeptide inhibition studies. D^32S(PO4)GIHSGATTTAPS^45 abolished the αp33, but not the αp37 signal; D^32SGIHS(PO4)GATTTAPS^45 blocked the αp37 but not the αp33 signal. […] Proteins for MS analysis were immunopurified by M2 Flag-affinity beads (Sigma), separated by SDS-PAGE, Coomassie stained and the β-catenin bands were in-gel digested with endoproteinase Asp-N. The resulting peptides were desalted on small columns, eluted with 20% MeOH, 5% HCOOH, and analyzed by nanoelectrospray mass spectrometry [Yaron et al. (1998) id ibid.], using a quadrupole time-of-flight mass spectrometer (PE-Sciex, Canada).
GSK-3β is traditionally known to target the phosphorylation of +4P-primed substrates [Frame, S. et al. (2001) Mol Cell 7: 1321-1327], a specificity supported by recent structural studies of the enzyme [Dajani, R. et al (2001) Cell 105: 721-732]. The fact that the S45 phosphorylation site is not preceded by a +4P priming site led to the proposition that the molecular complex of axin and GSK-3β is capable of bypassing the priming requirement of the uncomplexed enzyme [Cohen and Frame (2001) id ibid.]. To assess the contribution of GSK-30 in axin-mediated S45 phosphorylation, two types of experiments were carried out. In the first set, 293 cells were incubated prior to harvesting with LiCl, a GSK-3β inhibitor capable of mimicking a Wnt effect [Klein, P. S. and D. A. Melton (1996) Proc Natl Acad Sci USA 93: 8455-8459; Stambolic, V. et al. (1996) Curr Biol 6: 1664-1668].

[4] = system: endogenous β-catenin; assay: Phosphorylation of endogenous β-catenin in proteasome-inhibited HeLa cells with kinase inhibitors; format: cell-based; conditions: CKI-7 100 μM; for S33 phosphorylation of endogenous β-catenin: LiCl 40 mM
Experimental: FIG. 5d: Effects of specific kinase inhibitors on the phosphorylation of endogenous β-catenin at S41,45 and S33 in HeLa cells. CKI-7 was used at 100 μM, H89 at 5 μM and LiCl at 40 mM. β-catenin was detected with anti-β-catenin antibody, or anti-phospho-p-catenin antibodies.
as §2
Western blot and mass spectrometry (MS). Three different commercial anti-β-catenin phospho-peptide antibodies were used: i) Anti-phospho-Thr41/Ser 45 (Cell Signaling Technology), a polyclonal antibody specific for both pT41 and pS45 (otp41,45). ii) Anti-phospho-Ser33/37/Thr41 (Cell Signaling Technology), a polyclonal antibody recognizing pS33 (αp33). […] Antibody specificities were determined by phosphopeptide inhibition studies. […]
In another set of experiments the in vivo role of CKI in S45 phosphorylation was analyzed, using two dominant negative CKIε constructs (dnXCKIε K85R and D128N) [McKay et al. (2001) id ibid.] and a specific CKI inhibitor (CKI-7) [Chijiwa, T. et al. (1989) J Biol Chem 264: 4924-4927]. […]

[5] = system: MITF-M promoter; assay: pGL3-MITF/M luciferase reporter assay in LB33B1 melanoma cells; format: cell-based; conditions: reporter-transfected B1 (LB33B1) cells; 20 mM LiCl for 24 hours
Experimental: FIG. 10c: MITF transcriptional activity requires β-catenin phosphorylation. The two related melanoma cell lines LB33A1 and LB33B1 were transfected with the pGL3-MITF/M luciferase reporter plasmid [Takeda et al. (2000) J Biol Chem 275: 14013-6] alone or together with DvlΔPDZ expression plasmid. 24 hours after transfection, one sample of cells was treated with 20 mM LiCl for 24 hours, as indicated. Cells were harvested and their lysate luciferase activity was determined using Promega's Luciferase Assay System. MITF-M transcriptional activity is expressed in Relative Luciferase Units (RLU). A TCF mutant-site reporter (pGL3-MITF/M195.3) was used to control TCF-independent transcription.
Cells were transfected with the TOPFLASH or pGL3-MITF/M luciferase reporter plasmids [Korinek et al., (1997) Science, 275: 1752-3; Takeda et al. (2000) J. Biol. Chem. 275: 14013-6] and the relevant expression plasmid combinations. 24 hours after transfection the cells were harvested. Luciferase activity was determined in the cells' lysate using Promega's Luciferase Assay System. The transcription activity is expressed in Relative Luciferase Units (RLU). TCF mutant-site reporters (FOPFLASH and pGL3-MITF/M195.3) were used to control TCF-independent transcriptional transactivation. […]

[6] = MG-132 treated, LiCl 40 mM for 6 hr

SMILES	proliferation of B1 melanoma cells [1]	phosphorylation of β-catenin [2]	axin-induced p45 signal of wt β-catenin ([3]; CKI-7 100 μM for 16 hr)	constitutive S45 phosphorylation of 45PKA β-catenin ([3]; CKI-7 100 μM for 16 hr, H89 data not shown)	S45/T41 phosphorylation of endogenous β-catenin [4]	S33 phosphorylation of endogenous β-catenin [4]	S45 phosphorylation of T41A mutated β-catenin ([3]; MG-132 treated, LiCl 40 mM)	axin-induced S33/37 phosphorylation of wt β-catenin [3, 6]	axin-induced T41/S45 phosphorylation signal of wt β-catenin [3, 6]	MS analysis of S45 peptides, treated versus non-treated cells ([3]; data not shown)	MITF promoter activity [5]
NCCNS(=O)(=O)c1ccc(Cl)c2ccncc12 [CKI-7]	slowed	suppressing	diminished	did not affect	suppressed	suppressed	–	–	–	–	–
[Cl-].[Li+] [LiCl]	–	–	–	–	–	exclusively blocked	no effect	abolished	minimally affected	no difference	inhibition
